Assay [1] deals with SCC-15. Put plainly: Cytotoxicity against human SCC15 cells assessed as reduction in cell viability at 50 uM after 24 hrs by resazurin reduction assay relative to control. In kind it is functional.
Assay [2] relates to SCC-15. Put plainly: Cytotoxicity against human SCC15 cells transfected with PPARgamma siRNA assessed as reduction in cell viability at 50 uM after 24 hrs by resazurin reduction assay. In kind it is functional.
Assay [3] has as its system SCC-15. Put plainly: Induction of apoptosis in human SCC15 cells assessed as increase in caspase 3 activity at 50 uM after 24 hrs relative to control. Format: functional.
For assay [4], the system named is SCC-15. Put plainly: Induction of apoptosis in human SCC15 cells transfected with PPARgamma siRNA assessed as increase in caspase 3 activity at 50 uM after 24 hrs relative to control. Format: functional.
Assay [5] deals with SCC-15. Nature of the assay: Downregulation of PPARalpha mRNA expression in human SCC15 cells at 10 uM after 4 hrs by RTqPCR analysis relative to control. Format: functional.
For assay [6], the system named is SCC-15. Put plainly: Downregulation of PPARalpha mRNA expression in human SCC15 cells at 50 uM after 4 hrs by RTqPCR analysis relative to control. In kind it is functional.
Assay [7] relates to SCC-15. Put plainly: Downregulation of PPARbeta mRNA expression in human SCC15 cells at 10 uM after 4 hrs by RTqPCR analysis relative to control. Format: functional.
The test system of assay [8] is SCC-15. Nature of the assay: Downregulation of PPARgamma mRNA expression in human SCC15 cells at 10 uM after 4 hrs by RTqPCR analysis relative to control. Format: functional.
Assay [9] concerns SCC-15. Put plainly: Downregulation of PPARgamma mRNA expression in human SCC15 cells at 50 uM after 4 hrs by RTqPCR analysis relative to control. Format: functional.
In assay [10] the test system is SCC-15. Put plainly: Induction of apoptosis in human SCC15 cells transfected with PPARalpha siRNA assessed as increase in caspase 3 activity at 50 uM after 24 hrs relative to control. Format: functional, cell-based.
Assay [11] relates to SCC-15. Put plainly: Cytotoxicity against human SCC15 cells assessed as increase in LDH release at 50 uM after 24 hrs by colorimetric assay relative to […]. Format: functional.
Assay [12] has as its system SCC-15. Put plainly: Cytotoxicity against human SCC15 cells transfected with PPARalpha siRNA assessed as increase in LDH release at 50 uM after 24 hrs by colorimetric assay. Format: functional, cell-based.
Assay [13] has as its system SCC-15. Put plainly: Cytotoxicity against human SCC15 cells transfected with PPARgamma siRNA assessed as increase in LDH release at 50 uM after 24 hrs by colorimetric assay relative to control. Format: functional, cell-based.
In assay [14] the test system is SCC-15. Nature of the assay: Cytotoxicity against human SCC15 cells transfected with PPARalpha siRNA assessed as reduction in cell viability at 50 uM after 24 hrs by resazurin reduction assay. Format: functional, cell-based.
Assay [15] deals with SCC-15. Put plainly: Cytotoxicity against human SCC15 cells transfected with PPARbeta siRNA assessed as reduction in cell viability at 50 uM after 24 hrs by resazurin reduction assay. Format: functional, cell-based.
The subject of assay [16] is SCC-15. Nature of the assay: Cytotoxicity against human SCC15 cells transfected with PPARbeta siRNA assessed as increase in LDH release at 50 uM after 24 hrs by colorimetric assay relative to control. In kind it is functional, cell-based.
Assay [17] deals with SCC-15. Nature of the assay: Downregulation of PPARbeta mRNA expression in human SCC15 cells at 50 uM after 4 hrs by RTqPCR analysis relative to control. Format: functional.
For assay [18], the system named is SCC-15. Nature of the assay: Induction of apoptosis in human SCC15 cells transfected with PPARbeta siRNA assessed as increase in caspase 3 activity at 50 uM after 24 hrs relative to control. In kind it is functional.

Here are results for five molecules from ChEMBL document CHEMBL4130496, “Anticancer properties of 4-thiazolidinone derivatives depend on peroxisome proliferator-activated receptor gamma (PPARγ)” (2017).

Molecules are shown by their SMILES. The source made the active and inactive calls. No cut-off for these calls is given here.

On to `O=C1c2ccccc2C(=O)c2sc3nc(=O)sc-3cc21`, for which the Activity came to 18.32% in the assay on SCC-15 [1]; 43.55% with SCC-15 [3]; 54.37% in the assay on SCC-15 [5]; 26.99% with SCC-15 [6]; 16.62% in the assay on SCC-15 [7]; 45.91% in the assay with SCC-15 [8]. In the assay with SCC-15 [9], this molecule yielded an Activity of 14.34%. For the same molecule, the result in the assay with SCC-15 [2] and in the assay with SCC-15 [4] was inactive. Also, the outcome in the assay on SCC-15 [10] was Active.

Take `O=C(Cn1c2c(sc1=O)[C@@H]1c3ccccc3OC[C@H]1CS2)Nc1ccc(Cl)c(Cl)c1`: the Activity was found to be 22.95% in the assay on SCC-15 [11]; 12.08% in the assay on SCC-15 [1]; 20.63% in the assay on SCC-15 [5]; 31.98% with SCC-15 [7]; 22.96% in the assay with SCC-15 [8]. Besides, in the assay with SCC-15 [12], the result was Active. Moreover, the outcome in the assay on SCC-15 [13] and with SCC-15 [2] was inactive.

Consider `CN(CCOc1ccc(CC2SC(=O)NC2=O)cc1)c1ccccn1` (stereo not given) [ROSIGLITAZONE], for which, in the assay with SCC-15 [1], the outcome was inactive. Also, the result in the assay on SCC-15 [14] and in the assay with SCC-15 [15] was Active. The same molecule gave an Activity with SCC-15 [8] of 25.54%.

As to `CN(C)c1ccc(C2CC(c3ccccc3)=NN2C2=NC(=O)/C(=C3/C(=O)Nc4ccccc43)S2)cc1` (stereo not given), the Activity with SCC-15 [11] is listed as 44.97%; in the assay on SCC-15 [1], 13.53%; in the assay with SCC-15 [3], 177.42%; in the assay on SCC-15 [5], 28.26%; in the assay with SCC-15 [6], 18.66%; in the assay with SCC-15 [7], 31.43%. Besides, the Activity in the assay with SCC-15 [17] was found to be 31.92%; with SCC-15 [8] it was 24.79%; in the assay with SCC-15 [9], 15.27%. For the same molecule, the result in the assay with SCC-15 [12] and in the assay with SCC-15 [10] was Active. Moreover, the outcome with SCC-15 [16], in the assay with SCC-15 [13], with SCC-15 [2] and with SCC-15 [4] was inactive.

Regarding `CCc1ccc(CCOc2ccc(CC3SC(=O)NC3=O)cc2)nc1` (stereo not given) [PIOGLITAZONE], the outcome in the assay with SCC-15 [1] and in the assay on SCC-15 [3] was inactive. Besides, the outcome in the assay on SCC-15 [14] and with SCC-15 [15] was Active. Besides, the Activity in the assay on SCC-15 [2] was 31.42%; in the assay on SCC-15 [4], 43.03%; in the assay on SCC-15 [9], 17.33%; in the assay on SCC-15 [18], greater than 27.52%.
